Source: ChEMBL document CHEMBL1147777, “Synthesis and antibacterial activity of substituted 1,2,3,4-tetrahydropyrazino [1,2-a] indoles” (2006)
Active and inactive are the calls of the source. No cut-off for these calls is given here.

Tests used:
Staphylococcus aureus = assay: MIC per disc in Staphylococcus aureus by disc diffusion method; assay type: functional
Pseudomonas aeruginosa = assay: MIC per disc against Pseudomonas aeruginosa by disc diffusion method; assay type: functional
RBCs = assay: Cytotoxicity against erythrocytes by haemolytic assay at upto 500 ug/ml; assay type: functional, Erythrocyte
Escherichia coli = assay: MIC per disc against Escherichia coli by disc diffusion method; assay type: functional
Salmonella typhi = assay: MIC per disc against Salmonella typhi by disc diffusion method; assay type: functional, Salmonella enterica subsp. enterica serovar Typhi
[1] = system: Streptomyces thermovulgaris; assay: MIC per disc against Streptomyces thermonitrificans by disc diffusion method; assay type: functional
[2] = Salmonella enterica subsp. enterica serovar Typhi

| Molecule | MIC (Staphylococcus aureus) | MIC (Pseudomonas aeruginosa) | Activity (RBCs) [%] | MIC (Escherichia coli) | MIC (Salmonella typhi) [µg] | MIC [1] | MIC (Salmonella typhi; [2]) |
| --- | --- | --- | --- | --- | --- | --- | --- |
| Cc1c2n(c3ccccc13)CCNC2c1ccc(F)cc1 (stereo not drawn) | 30 µg | 30 µg | 5 | 15 µg | 30 | 7.5 µg | – |
| Cc1c2n(c3ccccc13)CCN(Cn1nnc3ccccc31)C2 | 30 µg | inactive | – | inactive | 60 | inactive | – |
| COc1cccc(C2NCCn3c2c(C)c2ccccc23)c1 (stereo not drawn) | 60 µg | inactive | – | 30 µg | 30 | 15 µg | – |
| GENTAMICIN | 1 µg | 0.5 µg | – | 1 µg | – | 1 µg | 1 µg |
| Cc1c2n(c3ccccc13)CCN(Cc1ccccc1)C2 | 15 µg | 60 µg | – | inactive | 60 | 60 µg | – |
| Cc1c2n(c3ccccc13)CCNC2c1ccccc1 (stereo not drawn) | inactive | 3.75 µg | – | inactive | – | inactive | inactive |
| Cc1c2n(c3ccccc13)CCN(CC#N)C2 | 15 µg | 60 µg | – | inactive | 30 | 30 µg | – |
| Cc1ccc(C2NCCn3c2c(C)c2ccccc23)cc1 (stereo not drawn) | 30 µg | 60 µg | 5 | 15 µg | 15 | 30 µg | – |
| Cc1cn2c(cc3ccccc32)c(-c2ccccc2)n1 | 60 µg | 60 µg | – | 60 µg | 60 | 60 µg | – |
| CCOP(=O)(CN1CCn2c(c(C)c3ccccc32)C1)OCC | inactive | 60 µg | – | inactive | – | 60 µg | inactive |
| Cc1c2n(c3ccccc13)CCNC2c1ccc(Br)cc1 (stereo not drawn) | 15 µg | 60 µg | – | inactive | 60 | 15 µg | – |
| Cc1c2n(c3ccccc13)CCNC2c1ccccn1 (stereo not drawn) | 3.75 µg | inactive | – | inactive | – | inactive | inactive |
| Cc1c2n(c3ccccc13)CCN(C)C2 | 30 µg | 30 µg | – | inactive | 30 | 30 µg | – |
| C[C@H]1c2cccc(O)c2C(=O)C2=C(O)[C@]3(O)C(=O)C(C(N)=O)=C(O)[C@@H](N(C)C)[C@@H]3[C@@H](O)[C@@H]21.Cl [DOXYCYCLINE HYDROCHLORIDE] | 1 µg | 1 µg | – | 2 µg | 1 | 1 µg | – |
| Cc1c2n(c3ccccc13)CCNC2c1ccc([N+](=O)[O-])cc1 (stereo not drawn) | 30 µg | 30 µg | 5 | 30 µg | 30 | 15 µg | – |
| Cc1cn2c(cc3ccccc32)c(C)n1 | 60 µg | 60 µg | – | 60 µg | 60 | 60 µg | – |
| Cc1ccc(CN2CCn3c(c(C)c4ccccc43)C2)cc1 | 15 µg | 60 µg | – | inactive | 30 | 60 µg | – |
| Cc1c2n(c3ccccc13)CCNC2c1cccs1 (stereo not drawn) | 60 µg | inactive | – | inactive | 30 | inactive | – |
| Cc1c2n(c3ccccc13)CCNC2c1cccc(Cl)c1 (stereo not drawn) | inactive | 15 µg | – | inactive | – | 3.75 µg | inactive |
